Test results as given in patent publication US20100130519A1 (priority 2007, published 2010).
Like-named read-outs stand apart in the source and are kept apart here.

Key:
[1] = system: Calu-6 human lung tumour xenografts; assay: Calu-6 Human Lung Cancer Xenograft Model; format: in vivo; settings: athymic mice, p.o. 24 days
Description: Experiments were conducted in female athymic mice (Swiss nu/nu genotype, ≧6 weeks of age). Calu-6 human lung tumour xenografts were established in mice by injecting 1×10^6 cells ([…] containing 50% Matrigel®) subcutaneously in the dorsal flank. Tumour volumes were assessed using bilateral Vernier calliper measurement at least twice weekly and calculated using the formula (length×width)×√(length×width)×(π/6), where length was taken to be the longest diameter across the tumour and width the corresponding perpendicular. Mice were randomised into 4 treatment groups (10 mice/group) when the mean tumour volume reached approximately 0.2 cm^3. […] (0.5% w/v Methocel/0.1% w/v Tween 80).
Tumour growth inhibition from the start of treatment was assessed by comparison of the differences in tumour volume between control and treated groups.

[2] = target: c-Kit (stem cell factor receptor tyrosine kinase) (Homo sapiens, UniProt P10721); assay: c-Kit inhibition; format: biochemical
Sequence of c-Kit (stem cell factor receptor tyrosine kinase) (P10721 26-976): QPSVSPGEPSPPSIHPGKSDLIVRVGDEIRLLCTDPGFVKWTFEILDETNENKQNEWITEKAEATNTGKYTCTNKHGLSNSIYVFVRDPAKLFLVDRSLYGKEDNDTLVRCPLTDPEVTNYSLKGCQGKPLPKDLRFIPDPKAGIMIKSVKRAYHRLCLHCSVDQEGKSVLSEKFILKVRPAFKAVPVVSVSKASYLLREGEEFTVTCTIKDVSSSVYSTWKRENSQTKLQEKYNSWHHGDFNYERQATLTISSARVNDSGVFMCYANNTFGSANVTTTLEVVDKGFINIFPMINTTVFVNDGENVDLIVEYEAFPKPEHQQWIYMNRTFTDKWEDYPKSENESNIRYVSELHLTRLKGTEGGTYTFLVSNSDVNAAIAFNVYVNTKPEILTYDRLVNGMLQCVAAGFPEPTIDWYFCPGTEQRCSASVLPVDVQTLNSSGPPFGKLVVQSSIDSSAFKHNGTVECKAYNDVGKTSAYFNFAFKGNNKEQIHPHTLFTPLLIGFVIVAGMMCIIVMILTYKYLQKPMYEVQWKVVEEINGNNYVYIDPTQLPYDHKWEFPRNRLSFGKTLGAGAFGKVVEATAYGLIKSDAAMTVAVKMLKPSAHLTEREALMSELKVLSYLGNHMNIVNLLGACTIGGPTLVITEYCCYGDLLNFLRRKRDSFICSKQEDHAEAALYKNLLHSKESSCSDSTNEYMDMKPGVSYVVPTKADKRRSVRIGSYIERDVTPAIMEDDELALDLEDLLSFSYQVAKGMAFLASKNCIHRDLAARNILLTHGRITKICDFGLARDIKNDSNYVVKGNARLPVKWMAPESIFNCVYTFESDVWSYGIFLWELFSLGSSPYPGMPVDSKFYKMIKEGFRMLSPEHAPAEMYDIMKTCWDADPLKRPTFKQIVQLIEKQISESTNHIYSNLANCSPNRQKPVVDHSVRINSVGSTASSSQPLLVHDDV

HUVEC = HUVEC assay, endothelial cell proliferation; format: cell-based; settings: Homo sapiens
Calu-6 tumour xenograft = assay: in vivo solid tumour model of WO 00/47212, Calu-6 tumour xenograft; settings: once-daily oral, 28 days

inhibition of c-Kit [2] | SMILES | tumour growth inhibition ([1]; AZD2171 1.5 mg/kg once daily alone) | IC50 (HUVEC; VEGF-stimulated, read-out: IC50, VEGF-stimulated endothelial cell proliferation) | IC50 (HUVEC; basal (no VEGF stimulation), read-out: IC50, basal endothelial cell proliferation) | inhibition of growth of Calu-6 tumour xenograft (Calu-6 tumour xenograft; 1.5 mg/kg/day, P<0.01) | inhibition of growth of Calu-6 tumour xenograft (Calu-6 tumour xenograft; 3 mg/kg/day, P<0.0001) | inhibition of growth of Calu-6 tumour xenograft (Calu-6 tumour xenograft; 6 mg/kg/day, P<0.0001) | tumour growth inhibition ([1]; AZD6244 3 mg/kg twice daily alone)
inhibits | COc1cc2c(Oc3ccc4[nH]c(C)cc4c3F)ncnc2cc1OCCCN1CCCC1 [AZD2171, 4-(4-fluoro-2-methyl-1H-indol-5-yloxy)-6-methoxy-7-(3-(pyrrolidin-1-yl)propoxy)quinazoline] | 47% | 0.4 ± 0.2 nM | > 500 nM | 49% | 69% | 91% | –
– | Cn1cnc2c(F)c(Nc3ccc(Br)cc3Cl)c(C(=O)NOCCO)cc21 [AZD6244, 6-(4-Bromo-2-chloro-phenylamino)-7-fluoro-3-methyl-3H-benzoimidazole-5-carboxylic acid (2-hydroxy-ethoxy)-amide] | – | – | – | – | – | – | 44%
